In ChEMBL document CHEMBL1158206, “Ferintoic Acids A and B, New Cyclic Hexapeptides from the Freshwater Cyanobacterium Microcystis aeruginosa” (J Nat Prod, 1996):
Calls of active or inactive are those of the source. The rule behind the calls is not given here. Numbered stars: 1 amine (or outer) side, 2 acyl side, 3 side chain; on linkers, the order of the positions; unused ones are H or OH. Bridge positions count the residues as written; N and C are the ends. Square brackets hold non-standard residues; d marks the D form. Peptide text beside a SMILES is read from it. hTyr = N[C@@H](CCc1ccc(O)cc1)C(=O)O; aIle = CC[C@@H](C)[C@H](N)C(=O)O; NMeA = CN[C@@H](C)C(=O)O; CO = O=C([*:1])[*:2]

Assays:
[1] = Inhibition of chymotrypsin at 150 uM
[2] = Inhibition of chymotrypsin at 10 uM

Activity [1]	Activity [2]	SMILES
inactive	–	CC(C)[C@@H]1NC(=O)[C@H](NC(=O)N[C@@H](Cc2c[nH]c3ccccc23)C(=O)O)CCCCNC(=O)[C@H](Cc2ccccc2)NC(=O)[C@H](C)N(C)C(=O)[C@H](CCc2ccc(O)cc2)NC1=O ({Trp-CO}-[dK]V[hTyr][NMeA]F; lactam 1-C)
–	Active	CC[C@@H](C)[C@@H]1NC(=O)[C@H](NC(=O)N[C@@H](Cc2ccc(O)cc2)C(=O)O)CCCCNC(=O)[C@H](Cc2ccccc2)NC(=O)[C@H](C)N(C)C(=O)[C@H](CCc2ccc(O)cc2)NC1=O ({Tyr-CO}-[dK][aIle][hTyr][NMeA]F; lactam 1-C)
inactive	–	CC[C@@H](C)[C@@H]1NC(=O)[C@H](NC(=O)N[C@@H](Cc2c[nH]c3ccccc23)C(=O)O)CCCCNC(=O)[C@H](Cc2ccccc2)NC(=O)[C@H](C)N(C)C(=O)[C@H](CCc2ccc(O)cc2)NC1=O
